Molecular target: T1, Geranylgeranyl pyrophosphate synthase (Homo sapiens, UniProt O95749)
T1 sequence (O95749 whole entry): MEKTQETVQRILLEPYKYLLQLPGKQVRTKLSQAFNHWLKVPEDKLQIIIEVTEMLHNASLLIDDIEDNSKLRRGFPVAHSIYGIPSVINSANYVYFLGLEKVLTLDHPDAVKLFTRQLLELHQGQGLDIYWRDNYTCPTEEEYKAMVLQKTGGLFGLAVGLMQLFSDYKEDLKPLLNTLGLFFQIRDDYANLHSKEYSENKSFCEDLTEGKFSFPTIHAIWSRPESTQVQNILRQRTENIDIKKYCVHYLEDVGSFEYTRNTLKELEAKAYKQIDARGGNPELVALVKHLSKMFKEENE
Assay: GGPP Synthase Inhibition Assay
Details: pH 7; 37 °C
Procedure: The inhibitory activity of each test compound was evaluated by monitoring the formation of [14C]GGPP from FPP, using [14C]IPP as the substrate. To confirm the formation of radioactive products, one-dimensional thin-layer chromatography (TLC), with autoradiographic detection of [14C]FPP/[14C]GGPP, was used.

SMILES | IC50 [nM]
CCCCCCCCc1ccc[n+](CC(O)(P(=O)([O-])O)P(=O)(O)O)c1 (configuration not stated) [1-(2-hydrogenphosphonato-2-hydroxy-2-phosphonoethyl)-3-octylpyridin-1-ium] | 1380
CCCCCCCCCC(O)(P(=O)(O)O)P(=O)(O)O [(1-hydroxy-1-phosphonodecyl)phosphonic acid] | 890
